{
  "source": "patent US20050170345A1",
  "about": "“Neuroglobin is up-regulated by and protects neurons from hypoxic-ischemic injury” (priority 2001, published 2005)",
  "key": {"[1]": {"system": "17-20 kDa caspase-3 cleavage product", "test": "Caspase-3 cleavage product immunofluorescence in ODN-transfected cortical neurons", "type": "cell-based, mouse", "conditions": "fluorescence microscopy, hypoxic cortical neurons", "protocol": "Cultures were fixed with 4% paraformaldehyde and incubated over night at 4° C. with one or more of the following primary antibodies: rabbit polyclonal anti-Ngb (1:200), mouse monoclonal anti-NeuN (1:200, Chemicon), and rabbit polyclonal anti-17-20 kDa caspase-3 cleavage product (1:100, New England Biolabs). The secondary antibodies (all 1:200) were fluorescein isothiocyanate-conjugated goat anti-rabbit or anti-mouse IgG (Vector) and rhodamine-conjugated donkey anti-rabbit IgG (Jackson ImmunoResearch). Controls for non-specific binding included omitting primary (FIG. 1C) or secondary antibodies. In addition, in some cultures, nuclei were labeled with 4′,6-diamidino-2-phenylindole (DAPI) or DNA strand breaks were labeled with the Klenow fragment of DNA polymerase I (Roche) followed by rhodamine avidin D (Vector), as described (Jin et al. (1999) J Neurochem 72: 1204-1214). Fluorescence signals were detected with a Nikon E800 epifluorescence microscope using excitation/emission wavelengths of 535/565 nm for rhodamine (red), 470/505 nm for fluorescein isothiocyanate (green) and 360/400 nm for DAPI (blue). Results were recorded with a Magnifire digital color camera (Optronics). […]"}, "[2]": {"system": "vascular endothelial growth factor", "conditions": "aortic smooth muscle cells; cited from earlier work"}, "Ngb protein": {"system": "Ngb protein", "test": "Ngb protein expression in HN33 cells (Western blot)", "type": "cell-based, mouse", "conditions": "HN33 cells; for effect on induction of Ngb expression by hemin (Western blot): 1 h pretreatment then 50 μM hemin 24 h, LY83583 1 μM, KT5823 8 μM, GF109203X 10 μM, PD98059 20 μM", "protocol": "(§1) HN33 cells were cultured as described (Lee et al. (1990) J Neurosci. 10: 1779-1787; Shi et al. (1998) J Neurochem., 70:1035-1044; Jin et al. (2000) Proc Nati Acad Sci USA., 97:10242-10247). Cells were plated at 4×10^5 cells/well onto uncoated, 6-well plastic culture dishes in Dulbecco's modified Eagle's medium containing 10% (v/v) fetal bovine serum, 100 units/ml of penicillin and 100 μg/ml of streptomycin, and maintained at 37° C. in humidified 95% air/5% CO2. Cells were treated with hemin (typically 50 μM) or 8-Br-cGMP (10 μM) for up to 3 days, without daily replacement. To suppress sGC or PKG activity, cells were pretreated for 1 hour with inhibitors before adding other reagents.\n(§2) Cells were washed twice in PBS, and whole-cell extracts were prepared by adding 10 volumes of 1× sample buffer containing 2% SDS, 100 mM dithiothreitol, 60 mM Tris (pH 6.8) and 10% glycerol, and boiled for 5 minutes. Protein concentrations were determined using Bradford Protein Assays (Bio-Rad, Hercules, Calif.); 30 μg of protein was analyzed by 12% or 15% SDS-PAGE and transferred to Immuno-Blot PVDF membranes (Bio-Rad). Membranes were probed with affinity-purified anti-Ngb antibody, which was produced by immunizing with a synthetic peptide corresponding to amino-acids 35-50 (NH2-CLSSPEFLDHIRKVML-COOH, (SEQ ID NO:11) of mouse Ngb (Sun et aL (2001 Proc Natl Acad Sci USA. 98:15306-15311),and the signal was detected with Boehringer Mannheim chemiluminescence blotting kits. Differences in protein expression on Western blots were quantified using a GS-710 calibrated imaging densitometer and Quantity One software (Bio-Rad)."}, "Ngb mRNA": {"system": "Ngb mRNA", "test": "Ngb mRNA expression in HN33 cells (RT-PCR, quantitative RT-PCR, Northern blot)", "type": "cell-based, mouse", "conditions": "HN33 cells; for effect on hemin-induced Ngb expression at the mRNA level (quantitative RT-PCR): 1 h pretreatment then 50 μM hemin 24 h, LY83583 1 μM, KT5823 8 μM", "protocol": "as §1\nRT-PCR and Northern blot analyses were carried out as described previously (Zhu and Zhang (1999) Biochem Biophys Res Commun., 258:87-93). Briefly, total RNA from treated and untreated cells was extracted using a RNeasy Mini Kit (QIAGEN Operon, Valencia, Calif.), and DNA-free total RNA (2 μg per sample) was reverse-transcribed into first-strand cDNA using the Reverse Transcription System and Oligo-dT12-18 (GIBCO-BRL, Rockville, Md.) (Id.). Sequences of the primers used for PCR amplification were: Ngb forward, 5′ CTCTGGAACATGGCACTGTC 3′ (nt 135-154, SEQ ID NO:7); Ngb reverse, 5′ GCACTGGCTCGTCTCTTACT 3′ (nt 547-528, SEQ ID NO:8); β-actin forward, 5′ CACAGGCATTGTGATGGACTC 3′ (nt 524-544, SEQ ID NO:9); β-actin reverse, 5′ GCTCAGGAGGAGCAATGATCT 3′ (nt 582-563, (SEQ ID NO:10). Primers were designed based on the published sequences of these genes and were synth esized by QIAGEN Operon. All PCR primer pairs gave rise to only one discrete band of the expected size. PCR reactions were carried out in a total volume of 25 μl containing 2 μl cDNA, 1×PCR buffer (Boehringer Mannheim, Mannheim, FRG), 200 μM dNTPs, 0.6 U Taq DNA polymerase (Boehringer Mannheim), and 0.2 μM primers. The optimal conditions for amplification (temperature and cycle number) were determined experimentally according to previously published procedures (Id.). Different ratios of Ngb to b-actin primer pairs were tested to ensure that Ngb and b-actin were amplified with similar efficiency, and a kinetic study was undertaken to establish the number of cycles sufficient to detect both Ngb and b-actin without reaching saturation for either. The parameters chosen for PCR amplification were 95° C. for 1 minute, 57° C. for 45 seconds, 72° C. for 1 minute for 25-30 cycles, and a final incubation at 72° C. for 10 minutes. PCR products were separated on 1.2% agarose gels, visualized by ethidium bromide staining, and quantified using a ChemiImage System (Alpha Innotech Corporation, San Leandro, Calif.).\nFor Northern blotting, 15 μg of total RNA from each sample was fractionated on 1% formaldehyde/agarose gels and transferred to Hybond-N nylon membranes (Amersham Pharmacia, Piscataway, N.J.). Filters were hybridized with probes for Ngb MRNA, and β-actin mRNA at 68° C. in hybridization buffer (Clontech, Palo Alto, Calif.). ^32P-radiolabeled DNA probes were synthesized using cDNA obtained from RT-PCR amplification.\nQuantitative RT-PCR analysis was carried out as described previously.8 PCR reactions were carried out in a total volume of 25 μl containing 1 μI cDNA, 1×PCR buffer (Boehringer Mannheim), 200 μM dNTPs, 0.6 U Taq DNA polymerase (Boehringer Mannheim), two pairs of primers (one pair for the Ngb gene, another for the b-actin gene used as an internal control). The optimal conditions for amplification (the proportion between the two pairs of primers, temperatures, and cycle numbers) were determined experimentally according to previously established procedures.8 PCR products were separated on 1.2% agarose gels, visualized by ethidium bromide staining, and quantified using a ChemiImage System (Alpha Innotech Corporation)."}, "Ngb [3]": {"system": "Ngb", "test": "Ngb expression in cultured cortical neurons treated with hypoxia mimetics or other stressors (Western blot)", "type": "cell-based, mouse"}, "Ngb [4]": {"system": "Ngb", "test": "Hypoxia-induced Ngb expression in HN33 cells pretreated with protein kinase inhibitors (Western blot)", "type": "cell-based, mouse", "conditions": "inhibitor 1 hour then hypoxia (95% N2/5% CO2) 20 hours", "protocol": "FIGS. 10A and 10B show the effects of protein kinase inhibitors on hypoxia-induced Ngb expression. HN33 cells were treated with protein kinase inhibitors at the indicated concentrations for 1 hour, and then exposed to hypoxia (95% N2/5% CO2) for 20 hours. Western blotting was used to detect Ngb protein expression (FIG. 10A), which was quantified by computer densitometry (FIG. 10B). Data are representative blots (top) or means±SEM (bottom) from 3 experiments. *P<0.05 for drug treatment relative to hypoxia alone.\nas §2"}},
  "note": "Entries after “also recorded” stand apart in the source; their conditions may differ. Read-outs that look alike come from different tables or passages of the source. {Fluorescein} = fluorescein label",
  "data": [
    {"molecule": "5′-ATG GAG CGC CCG GA-3′ (sense ATGGAGCGCCCGGA; DNA, 5' {Fluorescein}, backbone and methylation of C not given here) [sense ODN]", "values": [
      {"measurement": "transfected cells co-expressing the 17-20 kDa caspase-3 cleavage product", "setting": "[1]", "value": "few"}
    ]},
    {"molecule": "Nc1nc2c(nc(Br)n2[C@@H]2O[C@@H]3COP(=O)(O)O[C@H]3[C@H]2O)c(=O)[nH]1", "note": "[8-Br-cGMP]", "values": [
      {"measurement": "effect on hypoxic induction of vascular endothelial growth factor", "setting": "[2]", "value": "suppress"},
      {"measurement": "inductive effect of hemin on neuroglobin reproduced by the agent", "setting": "Ngb protein", "value": "mimicked"},
      {"measurement": "increase in Ngb protein expression", "setting": "Ngb protein; 10 μM 8-Br-cGMP, 2-24 h", "value": "2- to 2.5 fold"},
      {"measurement": "increase in Ngb mRNA expression", "setting": "Ngb mRNA; 10 μM 8-Br-cGMP, 2-24 h", "value": "3- to 4 fold"}
    ]},
    {"molecule": "[Cl-].[Cl-].[Co+2]", "note": "[CoCl2]", "values": [
      {"measurement": "Ngb expression", "setting": "Ngb [3]", "value": "increased Ngb expression"}
    ]},
    {"molecule": "CN(C)CCCn1cc(C2=C(c3c[nH]c4ccccc34)C(=O)NC2=O)c2ccccc21", "note": "[GF109203X]", "values": [
      {"measurement": "effect on induction of Ngb expression by hemin (Western blot)", "setting": "Ngb protein", "value": "no significant effect"}
    ]},
    {"molecule": "COC(=O)[C@@]1(OC)C[C@H]2O[C@]1(C)n1c3ccccc3c3c4c(c5c6ccccc6n2c5c31)C(=O)N(C)C4", "note": "[KT5823]", "values": [
      {"measurement": "effect on induction of Ngb expression by hemin (Western blot)", "setting": "Ngb protein", "value": "attenuated; also recorded: significantly diminished"},
      {"measurement": "effect on hemin-induced Ngb expression at the mRNA level (quantitative RT-PCR)", "setting": "Ngb mRNA", "value": "significantly inhibited"},
      {"measurement": "effect on hypoxic induction of Ngb", "setting": "Ngb [4]", "value": "not blocked"}
    ]},
    {"molecule": "O=C1C(Nc2ccccc2)=CC(=O)c2ncccc21", "note": "[LY83583]", "values": [
      {"measurement": "effect on induction of Ngb expression by hemin (Western blot)", "setting": "Ngb protein", "value": "attenuated; also recorded: significantly diminished"},
      {"measurement": "effect on hemin-induced Ngb expression at the mRNA level (quantitative RT-PCR)", "setting": "Ngb mRNA", "value": "significantly inhibited"},
      {"measurement": "effect on hypoxic induction of Ngb", "setting": "Ngb [4]", "value": "not blocked"}
    ]},
    {"molecule": "COc1cccc(-c2cc(=O)c3ccccc3o2)c1N", "note": "[PD98059]", "values": [
      {"measurement": "effect on induction of Ngb expression by hemin (Western blot)", "setting": "Ngb protein", "value": "no significant effect"},
      {"measurement": "effect on hypoxic induction of Ngb", "setting": "Ngb [4]", "value": "blocked"}
    ]},
    {"molecule": "CN[C@@H]1C[C@H]2O[C@@](C)([C@@H]1OC)n1c3ccccc3c3c4c(c5c6ccccc6n2c5c31)C(=O)NC4", "note": "[staurosporine]", "values": [
      {"measurement": "Ngb expression", "setting": "Ngb [3]; cultured cortical neurons treated 24 h, 300 μM CoCl2 (Co2+), 100 μM Dfx, 0.1 μM staurosporine, 500 μM SNP, Western blot", "value": "did not increase Ngb expression; also recorded: no change"}
    ]}
  ]
}
